From paper PMC7351026, “Serum Half-Lives for Short- and Long-Chain Perfluoroalkyl Acids after Ceasing Exposure from Drinking Water Contaminated by Firefighting Foam” (Environmental Health Perspectives, 2020)
“And” between values parts separate entries of the source, which are not always exact repeats. Identical values can stand only once. Like-named read-outs stand apart in the source and are kept apart here. Marks after values point to notes of the source that are not given here.

What was measured:
[1] = PFAS levels in serum samples of airport employees (LC/MS/MS); conditions: for Serum level in the first samples, median (range) / Relative composition of PFAS in serum, molar concentration basis / Relative composition of PFAS in serum, weight basis / Serum concentration, molar basis / Serum concentration, weight basis: all 26 airport employees; for Relative composition of PFAS in serum, molar concentration basis / Relative composition of PFAS in serum, weight basis: first serum samples; for Serum concentration, molar basis / Serum concentration, weight basis: median of first serum samples
Summary of the method: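 LC/MS/MS quantification (BEH C18, 5 mM ammonium acetate water:methanol to methanol gradient) after protein precipitation of 25 μL serum with isotopically labeled internal standards, FBS-matrix calibration. Samples stored at −80°C, collected at monthly intervals from September 2018 and run together in a single batch.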

[2] = set-up: method as in Olsen et al. 2009; conditions: occupationally exposed workers; ref Olsen et al. 2009; cited from earlier work
[3] = set-up: method as in Zhang et al. 2015; conditions: ref Zhang et al. 2015, cited from earlier work
[4] = 1st sampling (September 2018), count 17
[5] = 2nd sampling (October 2018), count 17
[6] = 3rd sampling (November, 2018), count 17
[7] = 4th sampling (December 2018), count 16
[8] = 5th sampling (January 2019), count 16
[9] = employees participated in first blood sampling and repeated blood and urine sampling, N=17
[10] = employees participated in first blood sampling only, N=9, 11-14 d after end of exposure

## O=S(=O)(O)C(F)(F)C(F)(F)C(F)(F)C(F)(F)F [PFBS, perfluorobutane sulfonic acid]
[1]; [4]
  Serum PFAS level, 25 percentile: 0.32
  Serum PFAS level, 75 percentile: 0.68
  Serum PFAS level, Max: 1.3
  Serum PFAS level, Median: 0.46
  Serum PFAS level, Min: 0.22
[1]; [5]
  Serum PFAS level, 25 percentile: 0.11
  Serum PFAS level, 75 percentile: 0.31
  Serum PFAS level, Max: 0.70
  Serum PFAS level, Median: 0.17
  Serum PFAS level, Min: < LOD
[1]; [6]
  Serum PFAS level, 25 percentile: < LOD
  Serum PFAS level, 75 percentile: 0.28
  Serum PFAS level, Max: 0.65
  Serum PFAS level, Median: 0.09
  Serum PFAS level, Min: < LOD
[1]; [7]
  Serum PFAS level, 25 percentile: < LOD
  Serum PFAS level, 75 percentile: 0.24
  Serum PFAS level, Max: 0.52
  Serum PFAS level, Median: 0.08
  Serum PFAS level, Min: < LOD
[1]; [8]
  Serum PFAS level, 25 percentile: < LOD
  Serum PFAS level, 75 percentile: 0.11
  Serum PFAS level, Max: 0.30
  Serum PFAS level, Median: 0.06
  Serum PFAS level, Min: < LOD
[1]
  Serum level in the first samples, median (range): 0.33 ( <LOD –1.3) ng/mL
  Relative composition of PFAS in serum, molar concentration basis: 0.4%
  Relative composition of PFAS in serum, weight basis: 0.3%
  Serum concentration, molar basis: 0.0011
  Serum concentration, weight basis: 0.33
[1]; [9]
  PFAS in first serum sample, median (range): 0.46 ng/mL and 0.46 (0.22–1.3) ng/mL
[1]; [10]
  PFAS in first serum sample, median (range): 0.10 ( <LOD –1.0)^d ng/mL
[1]; females (N=7)
  Initial serum PFAS level, max: 1.3 ng/mL
  Initial serum PFAS level, median: 0.39 ng/mL
  Initial serum PFAS level, min: 0.06 ng/mL
[1]; males (N=19)
  Initial serum PFAS level, Max: 1.1 ng/mL
  Initial serum PFAS level, Min: < LOD
  Initial serum PFAS level, median: 0.32 ng/mL
[2]
  Serum level, average: 397 ng/mL

## O=C(O)C(F)(F)C(F)(F)C(F)(F)C(F)(F)C(F)(F)C(F)(F)C(F)(F)F [PFOA, perfluorooctanoic acid]
[1]; [4]
  Serum PFAS level, 25 percentile: 8.7
  Serum PFAS level, 75 percentile: 16
  Serum PFAS level, Max: 31
  Serum PFAS level, Median: 13
  Serum PFAS level, Min: 5.0
[1]; [5]
  Serum PFAS level, 25 percentile: 8.3
  Serum PFAS level, 75 percentile: 14
  Serum PFAS level, Max: 28
  Serum PFAS level, Median: 11
  Serum PFAS level, Min: 4.1
[1]; [6]
  Serum PFAS level, 25 percentile: 7.9
  Serum PFAS level, 75 percentile: 14
  Serum PFAS level, Max: 28
  Serum PFAS level, Median: 11
  Serum PFAS level, Min: 4.6
[1]; [7]
  Serum PFAS level, 25 percentile: 7.5
  Serum PFAS level, 75 percentile: 13
  Serum PFAS level, Max: 27
  Serum PFAS level, Median: 10
  Serum PFAS level, Min: 4.3
[1]; [8]
  Serum PFAS level, 25 percentile: 8.0
  Serum PFAS level, 75 percentile: 14
  Serum PFAS level, Max: 27
  Serum PFAS level, Median: 10
  Serum PFAS level, Min: 4.4
[1]
  Serum level in the first samples, median (range): 9.1 (2.9–31) ng/mL
  Relative composition of PFAS in serum, molar concentration basis: 8.1%
  Relative composition of PFAS in serum, weight basis: 8.2%
  Serum concentration, molar basis: 0.022
  Serum concentration, weight basis: 9.1
[1]; [9]
  PFAS in first serum sample, median (range): 13 (5.0–31) ng/mL
[1]; [10]
  PFAS in first serum sample, median (range): 6.5 (2.9–11) ng/mL
[1]; females (N=7)
  Initial serum PFAS level, max: 20 ng/mL
  Initial serum PFAS level, median: 6.7 ng/mL
  Initial serum PFAS level, min: 5.0 ng/mL
[1]; males (N=19)
  Initial serum PFAS level, Max: 31 ng/mL
  Initial serum PFAS level, Min: 2.9 ng/mL
  Initial serum PFAS level, median: 11 ng/mL
[1]; second to fifth samplings, 17 airport employees
  Serum level, median (range): 10 (4.1–28) ng/mL
[3]; nonpregnant women
  Urine/serum ratio: 0.0028
[3]; pregnant women
  Urine/serum ratio: 0.0011

## perfluoro-3/4/5-methylheptanesulfonate [3/4/5m-PFOS]
[1]; [4]
  Serum PFAS level, 25 percentile: 2.7
  Serum PFAS level, 75 percentile: 6.3
  Serum PFAS level, Max: 17
  Serum PFAS level, Median: 4.9
  Serum PFAS level, Min: 1.7
[1]; [5]
  Serum PFAS level, 25 percentile: 2.4
  Serum PFAS level, 75 percentile: 4.8
  Serum PFAS level, Max: 15
  Serum PFAS level, Median: 4.1
  Serum PFAS level, Min: 1.3
[1]; [6]
  Serum PFAS level, 25 percentile: 2.5
  Serum PFAS level, 75 percentile: 5.1
  Serum PFAS level, Max: 16
  Serum PFAS level, Median: 4.2
  Serum PFAS level, Min: 1.0
[1]; [7]
  Serum PFAS level, 25 percentile: 2.1
  Serum PFAS level, 75 percentile: 4.9
  Serum PFAS level, Max: 16
  Serum PFAS level, Median: 3.6
  Serum PFAS level, Min: 1.0
[1]; [8]
  Serum PFAS level, 25 percentile: 2.7
  Serum PFAS level, 75 percentile: 4.9
  Serum PFAS level, Max: 16
  Serum PFAS level, Median: 4.0
  Serum PFAS level, Min: 1.0
[1]; [9]
  PFAS in first serum sample, median (range): 4.9 (1.7–17) ng/mL
[1]; [10]
  PFAS in first serum sample, median (range): 2.9 (1.2–6.7) ng/mL
[1]; females (N=7)
  Initial serum PFAS level, max: 5.4 ng/mL
  Initial serum PFAS level, median: 2.9 ng/mL
  Initial serum PFAS level, min: 1.7 ng/mL
[1]; males (N=19)
  Initial serum PFAS level, Max: 17 ng/mL
  Initial serum PFAS level, Min: 1.2 ng/mL
  Initial serum PFAS level, median: 4.9 ng/mL
